Experimental data taken from article PMC4752739, “Functional structure and antimicrobial activity of persulcatusin, an antimicrobial peptide from the hard tick Ixodes persulcatus” (Parasites & Vectors, 2016).
Where a SMILES comes first, the peptide text is derived from it. Bridges are numbered along the chain shown (N, C = ends).

Experiments:
[1] = test system: methicillin-susceptible S. aureus (MSSA) clinical strains; test: Growth inhibition test (MIC), MSSA; type: cell-based, Staphylococcus aureus; settings: all 9 clinical isolates of MSSA
Description: (§1) In the growth inhibition test, we used 9 clinical strains of methicillin-susceptible S. aureus (MSSA) and 9 clinical strains of MRSA from patients in Jichi Medical University Hospital, using these strains in past report. The bacteria were grown in Trypto Soya (TS; Nissui, Tokyo, Japan) broth for 18–19 h at 37 °C.
(§2) The optical density at 660 nm (OD660) of pre-cultured bacteria was measured using an Ubest-35 (JASCO Corporation, Tokyo, Japan). The adjustment for an OD660 of 0.5 was conducted by adding TS broth. The bacteria were diluted to a final concentration of 1–5 × 10^4 colony forming units (CFUs) /mL with TS broth, after which 50 μL of bacterial suspension and 50 μL of peptide solution were mixed together in a 96-well plate. The peptide solution was prepared by two-fold dilution in TS broth, while the IP solution was prepared to final peptide concentrations of 40, 20, 10, 5, 2.5, 1.25, 0.625, 0.313, 0.157, and 0.079 μg/mL. Each mixture of bacteria and peptide solution was incubated at 37 °C. The OD660 of the cell suspension was measured after 20–24 h incubation by using a Synergy™ HT (BioTek, Winooski, VT, USA). A control was prepared by mixing 50 μL of bacterial suspension, 40 μL of TS broth, and 10 μL of HBSS. The minimal inhibitory concentration (MIC) of the peptides was defined as the lowest concentration of peptide that reduced growth by >90 %.

MRSA clinical strains = test: Growth inhibition test (MIC), MRSA; type: cell-based, Staphylococcus aureus; settings: all 9 clinical isolates of MRSA
Description: as §1, §2

MSSA = test: Short-time killing assay, MSSA; type: cell-based, Staphylococcus aureus; settings: 1 h at 37 °C; for Susceptibility in short-time killing assay: colony count, % of control, triplicate
Description: (§3) We selected 3 strains each of MSSA and MRSA used in the growth inhibition test. Unlike the growth inhibition test described above, an additional growth inhibition test was conducted using small test tubes. Each mixture of bacteria and peptide solution was incubated for 1 h at 37 °C. After the incubation, 100 μL aliquots were removed from the tubes and inoculated on TS agar plates. The plates were incubated overnight at 37 °C, after which colonies were counted. The same control was prepared as in the growth inhibition test described above. The data were then converted and expressed as a percentage (sample per control).

MRSA [2] = test: Short-time killing assay, MRSA; type: cell-based, Staphylococcus aureus; settings: 1 h at 37 °C
Description: as §3

[3] = test system: bovine fetal fibroblasts (BFFs-NCC1); test: Effect on mammalian cell growth, fibroblasts; type: cell-based; settings: 50 μg/mL, 24 h or 48 h, trypan blue staining, automatic cell counter; triplicate
Description: (§4) In this study, we used bovine fetal fibroblasts (BFFs-NCC1) and bovine fetal colon epithelial cells (BFCEs-K4DT), which were maintained in the Laboratory of Animal Breeding and Genetics, Tohoku University Graduate School of Agricultural Science. The BFFs-NCC1 and BFCEs-K4DT were cultured in a cell culture dish and wrapped 12-well plates. The nutrient medium of each cell was Dulbecco’s modified Eagle’s medium (DMEM; Nacalai Tesque, Kyoto, Japan or Mediatech, Inc, Manassas, VA, USA) containing 10 % fetal bovine serum (Invitrogen, Carlsbad, CA, USA) and a 1 % antibiotic-antimycotic mixed stock solution (Nacalai Tesque). Then each cell was seeded into 12-well plates at 1 × 10^4 cell/well and 1 × 10^5 cell/well. After overnight incubation, the nutrient mediums were changed to DMEM with IP (0, 5, 10, 50 μg/mL), and cells were incubated for 24 h or 48 h (BFCEs-K4DT only 48 h) at 37 °C. Then, these were collected and measured using a trypan blue staining method, with an EVE™ Automatic cell counter (NanoEnTeK, Seoul, Korea). For BFCEs-K4DT, the morphology of untreated control (IP 0 μg/mL) and treated cell (IP 50 μg/mL) was observed.

[4] = test system: bovine fetal colon epithelial cells (BFCEs-K4DT); test: Effect on mammalian cell growth and morphology, colon epithelial cells; type: cell-based; settings: 50 μg/mL, 48 h
Description: as §4

BFFs-NCC1 = test: Neutral comet assay, fibroblasts; type: cell-based, bovine; settings: neutral conditions
Description: (§5) We prepared BFFs-NCC1 and BFCEs-K4DT treated or untreated with IP 50 μg/mL for 48 h as above experiment. These cells were harvested by centrifugation (800 g, 3 min) and washed with sterile Dulbecco’s Phosphate Buffered Saline (DPBS; GIBCO). To generate positive control for comet tails, a part of each cell is untreated with IP treated 25 μM KMnO4, and all samples placed for 20 min at 4 °C. The comet assay was performed under neutral conditions following the Trevigen protocol. Each cell at 1 × 10^5 cell/mL was combined with molten low-melting agarose at a ratio of 1 : 10 (vol /vol) and immediately pipetted 50 μL onto Comet slides. Slides were stored in the dark for 30 min at 4 °C before immersing in lysis solution overnight. The slides were immersed in freshly prepared neutral electrophoresis buffer (dissolved Tris base and sodium acetate in distilled water, pH 9.0) for 30 min at 4 °C. Gel electrophoresis was performed at 1 volt per cm (measured electrode to electrode) for 45 min in neutral electrophoresis buffer. The comet slides were immersed in DNA precipitation solution (7.5 M ammonium acetate containing 95 % ethanol) for 30 min at room temperature and then in 70 % ethanol for 30 min at room temperature. […] The slides were observed by fluorescence microscopy FSX100 (Olympus, Tokyo, Japan).

BFCEs-K4DT = test: Neutral comet assay, colon epithelial cells; type: cell-based, bovine; settings: neutral conditions
Description: as §5

MRSA [5] = settings: cited from earlier work
From the text: Host cytotoxicity of AMPs is a major limitation in their application as antimicrobial drugs. […] Not only that, but DNA damage was not detected in each cell treated with IP in neutral comet assay (Fig. 6). […] Moreover, in the hemolytic assay, we observed minimal hem ... || Treating MRSA infection is challenging owing to the remarkable ability of S. aureus to develop resistance to multiple antibiotics, thus limiting the number of viable therapeutic options. New anti-MRSA drugs called DAP were developed recently, but DAP-resistant bacteria have already been reported. Therefore, there is an urgent need to develop novel antimicrobials with unique mechanisms of action to combat MRSA, one of which is AMP [4]. It has been reported that tick AMP derived from Ornithodoros moubata, with an amino acid sequence similar to that of OMBAC (91 %) (Table 2) ...

[6] = cited from earlier work
From the text: Host cytotoxicity of AMPs is a major limitation in their application as antimicrobial drugs. […] Not only that, but DNA damage was not detected in each cell treated with IP in neutral comet assay (Fig. 6). […] Moreover, in the hemolytic assay, we observed minimal hem ...

[7] = positive control, 25 μM, 20 min at 4 °C

In the case of CC[C@H](C)[C@@H]1NC(=O)[C@H](CO)NC(=O)[C@H](CCCNC(=N)N)NC(=O)[C@@H]2CSSC[C@@H](C(=O)N[C@@H](Cc3ccc(O)cc3)C(=O)N[C@@H](CO)C(=O)N[C@@H](CCCNC(=N)N)C(=O)O)NC(=O)[C@H]([C@@H](C)O)NC(=O)[C@@H]3CSSC[C@H](NC(=O)[C@H](C)NC(=O)CNC(=O)[C@H](CCC(N)=O)NC(=O)[C@H](CC(N)=O)NC(=O)[C@H](Cc4ccccc4)NC(=O)[C@@H]4CCCN4C(=O)[C@@H](NC(=O)CNC(=O)[C@H](Cc4ccccc4)NC(=O)CN)CSSC[C@H](NC(=O)[C@H](Cc4ccc(O)cc4)NC(=O)CNC(=O)CNC(=O)[C@H](CCCNC(=N)N)NC(=O)[C@H](CCCNC(=N)N)NC(=O)CNC1=O)C(=O)N[C@@H](C)C(=O)NCC(=O)N[C@@H](CC(C)C)C(=O)N[C@@H](Cc1ccccc1)C(=O)N[C@@H](CCCCN)C(=O)N[C@@H](CCC(N)=O)C(=O)N[C@@H]([C@@H](C)O)C(=O)N3)C(=O)N[C@@H](Cc1c[nH]cn1)C(=O)N[C@@H](CCCNC(=N)N)C(=O)N[C@@H](Cc1c[nH]cn1)C(=O)N2 [IP, persulcatusin] (H-GFGCPFNQGACHRHCRSIGRRGGYCAGLFKQTCTCYSR-OH; disulfide 4-25, 11-33, 15-35 (inferred); N-terminus and C-terminus assumed), the “MIC at which growth of all 9 clinical isolates was inhibited” value [1] is reported as 1.25 µg/mL, the “MIC at which growth of all 9 clinical isolates was inhibited” value (MRSA clinical strains) is reported as 2.5 µg/mL and the “Bactericidal activity within 1 h” value (MSSA; MSSA) is reported as “dose-dependent bactericidal activity”. For the same molecule, the “Susceptibility in short-time killing assay” value (from here on “Susceptibility”) (MSSA; strain MS-3) was “susceptible”, the “Susceptibility” value (MSSA; strains MS-1 and MS-2) was “relatively resistant” and the “Bactericidal activity within 1 h” value (MRSA [2]; MRSA) was “dose-dependent bactericidal activity”. The “Susceptibility” value (MRSA [2]; all MRSA strains (MR-1, 2, 3), colony count, % of control, triplicate) was “susceptible”, the “Number of cells after treatment” value [3] was “no significant differences” and the “Cell morphology after treatment” value [4] was “no morphological change”. The “Number of cells after treatment” value ([4]; trypan blue staining, automatic cell counter, triplicate) was “no significant differences”, the “DNA damage (comet tails)” value (BFFs-NCC1; 50 μg/mL for 48 h) was “no comet tails” and the “DNA damage (comet tails)” value (BFCEs-K4DT; 50 μg/mL for 48 h) was “no comet tails”.
In the case of melittin, the “Antimicrobial activity against MRSA” value (MRSA [5]) is given as “antimicrobial activity against MRSA” and the Hemolytic activity [6] is given as “hemolytic activity”.
For “GYGCPFNQYQCHSHCSGIRGYKGGYCKGTFKQTCKCY [(No use), 91 % similar to OMBAC]”, the “MIC against MRSA” value (MRSA [5]) is listed as “low MIC”.
For [K+].[O]=[Mn](=[O])(=[O])[O-] [KMnO4, reference compound], the “DNA damage (comet tails)” value (BFFs-NCC1; [7]) was “some comet tails” and the “DNA damage (comet tails)” value (BFCEs-K4DT; [7]) was “some comet tails”.
